In patent publication US8420331B2, “Type IV collagen-like immunoreactive peptide” (priority 2006, dated 2013):

Experiments:
[1] = test system: antibody (IgG) in urine of nephritis patients; test: Screening of antigenic site on alpha 5 chain NC1: ELISA with synthetic peptides as coating antigen; format: binding, human
Method: A preliminary test was carried out, using the ELISA method, in which NC1 as the antigen for coating was replaced with synthetic peptides. The measurement conditions were: antigen concentration: 10 μg/mL (10 mM PBS), 100 μL/well; blocking agent: Block Ace (manufactured by Dainippon Pharmaceutical Co., Ltd.) diluted to 25%, 250 μL/well; urine: human 20- to 100-fold dilution; second antibody (enzyme-labeled anti-human IgG antibody): ×800; and substrate solution: TMB (+) (manufactured by DAKO Corp). The specimen was diluted to 20- to 100-fold, unlike the original fourfold dilution of NC1 as the antigen. […] Accordingly, a main test was carried out using NC1 of the alpha 5 chain. Note that 301 contained the amino acid sequence about 5 to 18 from the N-terminus on the alpha 3 chain corresponding to Goodpasture syndrome specified by computer software. Furthermore, it was possible to check alpha chains other than the alpha 5 chain, such as 301. […] Therefore, it was possible to use both antigens as nephritis detection reagents.
A test was carried out using the ELISA method, in which NC1 as the antigen for coating was replaced with synthetic peptides, under the same conditions as those described above.
The peptides of the alpha 5 chain were prepared as described below. Fifteen synthetic peptides were prepared from the whole region of the alpha 5 chain NC1, in which a first unit of 20 amino acid residues was selected from the N-terminus, and subsequent units, each containing 20 amino acid residues, were selected with 5 amino acid residues overlapping each other (hereinafter referred to as yp01 to yp15 (H4NA5-1 to 5-15 in FIG. 6), yp15 containing more than 20 amino acid residues). […] Thus, the five peptides were antigenic sites common to the specimen A, the specimen B, and IgA nephropathy which were derived from different diseases. As described above, bovine glomerulus-derived NC1 and triple helix have substantially the same reactivity with nephritis urine specimens, and both are considered to be common antigens to nephritis. Thus, the triple helix (7S and/or the central helical domain) of the alpha 5 chain and peptides thereof can be considered as immunoreactive peptide candidates. The whole alpha 5 chain may be used as an antigen. However, in such a case, a time-consuming process is required.

rabbits (female) [2] = test: Nephritis model using immunoreactive peptide as inducer, rabbits, urinary protein; format: in vivo, rabbit; details: peptide 0.3 mg/mL with FCA intradermally once in two weeks, four times
Method: The selected peptides can be used as an inducer of nephritis independently and/or in combination with each other. Although yp08 (SEQ ID NO: 8) and yp12 (SEQ ID NO: 6) were used as peptides and rabbits and guinea pigs were used as animals, the peptides, animals, and administration methods are not limited thereto.
(§1) Peptides 0.3 mg/mL (0.15 mg only for initial administration) together with the same amount of FCA were intradermally administered to rabbits (female) once in two weeks, four times in total.

rabbits (female) [3] = test: ELISA antibody level in serum of peptide-immunised rabbits (peptide-coated microplate); format: in vivo; details: rabbit serum
Method: as §1
Furthermore, in the ELISA method in which the microplate was coated with the peptide yp12 (SEQ ID NO: 6) (10 μg/mL), in 7 weeks after the initial administration, at a dilution of 32,000 fold, the antibody level in serum reached 3.00, which is in the vicinity of the upper limit of measurement of the absorptiometer.

guinea pigs (female) = test: ELISA antibody level in serum of peptide-immunised guinea pigs (yp12-coated microplate); format: in vivo; details: guinea pig serum, dilution 8,000 fold, 7 weeks after initial administration
Method: Peptides 0.1 mg/mL together with the same amount of FCA were intradermally administered to guinea pigs (female) once in two weeks, four times in total.
Furthermore, in the ELISA method in which the microplate was coated with the peptide yp12 (SEQ ID NO: 6) (10 μg/mL), in 7 weeks after the initial administration, at a dilution of 8,000 fold, the antibody level in guinea pig serum reached 3.00, which is in the vicinity of the upper limit of measurement of the absorptiometer. Furthermore, intra-abdominal administration to rats or mice of these anti-immunoreactive peptide antibodies (antiserum) enabled production of models of nephritis which was weak, close to that of human, and slowly progressive, unlike the administration of conventional anti-NC1 antibodies (antiserum).

[4] = specimen A (chronic nephritis: No. 38)
[5] = specimen B (diabetic nephritis: No. 42)

Row | Substance | reaction with urine specimen ([1]; IgA nephropathy) | reaction with urine specimen [1, 4] | reaction with urine specimen [1, 5] | urinary protein (rabbits (female) [2]) | ELISA antibody level in serum (A450 nm) (rabbits (female) [3]; dilution ×8,000) | ELISA antibody level in serum (A450 nm) (rabbits (female) [3]; dilution 32,000 fold, 7 weeks after initial administration) | ELISA antibody level in serum (A450 nm) (guinea pigs (female))
1 | GRGTC NYYAN SYSFW LATVD (GRGTCNYYANSYSFWLATVD; peptide with homology to Type IV collagen) [yp13, synthetic 20-residue peptide from human type IV collagen alpha 5 chain NC1] | strongly reacted | strongly reacted | strongly reacted |  |  |  | 
2 | GWDSL WIGYS FMMHT SAGAE (GWDSLWIGYSFMMHTSAGAE; peptide with homology to Type IV collagen) [yp10, synthetic 20-residue peptide from human type IV collagen alpha 5 chain NC1] | strongly reacted | strongly reacted | strongly reacted |  |  |  | 
3 | PFISR CAVCE APAVV IAVHS (PFISRCAVCEAPAVVIAVHS; peptide with homology to Type IV collagen) [yp08, synthetic 20-residue peptide from human type IV collagen alpha 5 chain NC1] | strongly reacted | strongly reacted | strongly reacted | +2 | 3.00 |  | 
4 | SCLEE FRSAP FIECH GRGTC (SCLEEFRSAPFIECHGRGTC; peptide with homology to Type IV collagen) [yp12, synthetic 20-residue peptide from human type IV collagen alpha 5 chain NC1] | strongly reacted | strongly reacted | strongly reacted | +2 |  | 3.00 | 3.00
5 | STMPF MFCNI NNVCN FASRN (STMPFMFCNINNVCNFASRN; peptide with homology to Type IV collagen) [yp05, synthetic 20-residue peptide from human type IV collagen alpha 5 chain NC1] | strongly reacted | strongly reacted | strongly reacted |  |  |  | 
